Reference: patent US10604524B2, “Pyrropyrimidine compounds as MNKs inhibitors” (LIFEARC, priority 2015, dated 2020)
pIC50: −log10 of the molar value.

Columns and labels:
AXL = AXL (Homo sapiens, UniProt P30530); assay: Kinase selectivity screen; conditions: read-out: % Inhibition AXL
Full-length human MNK1 = Full-length human MNK1 (Homo sapiens, UniProt Q9BUB5, T385D); assay: MNK1 biochemical IC50 assay (Caliper mobility shift)
PIK3C2G = PIK3C2G (Homo sapiens, UniProt O75747); assay: Kinase selectivity screen; conditions: read-out: % Inhibition PIK3C2G
GSK3B = GSK3B (Homo sapiens, UniProt P49841); assay: Kinase selectivity screen; conditions: read-out: % Inhibition GSK3B
STK11 = STK11 (Homo sapiens, UniProt Q15831); assay: Kinase selectivity screen; conditions: read-out: % Inhibition STK11
PIM2 = PIM2 (Homo sapiens, UniProt Q9P1W9); assay: Kinase selectivity screen; conditions: read-out: % Inhibition PIM2
RAF1 = RAF1 (Homo sapiens, UniProt P04049); assay: Kinase selectivity screen; conditions: read-out: % Inhibition RAF1
DYRK2 = DYRK2 (Homo sapiens, UniProt Q92630); assay: Kinase selectivity screen; conditions: read-out: % Inhibition DYRK2
EPHA5 = EPHA5 (Homo sapiens, UniProt P54756); assay: Kinase selectivity screen; conditions: read-out: % Inhibition EPHA5
MAP2K7 = MAP2K7 (Homo sapiens, UniProt O14733); assay: Kinase selectivity screen; conditions: read-out: % Inhibition MAP2K7
MAPK8 = MAPK8 (Homo sapiens, UniProt P45983); assay: Kinase selectivity screen; conditions: read-out: % Inhibition MAPK8
PIK3CB = PIK3CB (Homo sapiens, UniProt P42338); assay: Kinase selectivity screen; conditions: read-out: % Inhibition PIK3CB
MINK1 = MINK1 (Homo sapiens, UniProt Q8N4C8); assay: Kinase selectivity screen; conditions: read-out: % Inhibition MINK1
STK4 = STK4 (Homo sapiens, UniProt Q13043); assay: Kinase selectivity screen; conditions: read-out: % Inhibition STK4
LYN = LYN (Homo sapiens, UniProt P07948); assay: Kinase selectivity screen; conditions: read-out: % Inhibition LYN
MET = MET (Homo sapiens, UniProt P08581); assay: Kinase selectivity screen; conditions: read-out: % Inhibition MET
ROCK2 = ROCK2 (Homo sapiens, UniProt O75116); assay: Kinase selectivity screen; conditions: read-out: % Inhibition ROCK2
AURKC = AURKC (Homo sapiens, UniProt Q9UQB9); assay: Kinase selectivity screen; conditions: read-out: % Inhibition AURKC
IKBKB = IKBKB (Homo sapiens, UniProt O14920); assay: Kinase selectivity screen; conditions: read-out: % Inhibition IKBKB
CDK2/CCNA2 = CDK2/CCNA2 (Homo sapiens, UniProt P24941); assay: Kinase selectivity screen; conditions: read-out: % Inhibition CDK2/CCNA2
EPHB1 = EPHB1 (Homo sapiens, UniProt P54762); assay: Kinase selectivity screen; conditions: read-out: % Inhibition EPHB1
MST1R = MST1R (Homo sapiens, UniProt Q04912); assay: Kinase selectivity screen; conditions: read-out: % Inhibition MST1R
Full-length human MNK2 = Full-length human MNK2 (Homo sapiens, UniProt Q9HBH9, T379D); assay: MNK2 biochemical IC50 assay (Caliper mobility shift)
SGK1 = SGK1 (Homo sapiens, UniProt O00141); assay: Kinase selectivity screen; conditions: read-out: % Inhibition SGK1
AKT1 = AKT1 (Homo sapiens, UniProt P31749); assay: Kinase selectivity screen; conditions: read-out: % Inhibition AKT1
MAPK14 = MAPK14 (Homo sapiens, UniProt Q16539); assay: Kinase selectivity screen; conditions: read-out: % Inhibition MAPK14
KIT = KIT (Homo sapiens, UniProt P10721); assay: Kinase selectivity screen; conditions: read-out: % Inhibition KIT
ABL2 = ABL2 (Homo sapiens, UniProt P42684); assay: Kinase selectivity screen; conditions: read-out: % Inhibition ABL2
STK10 = STK10 (Homo sapiens, UniProt O94804); assay: Kinase selectivity screen; conditions: read-out: % Inhibition STK10
FLT1 = FLT1 (Homo sapiens, UniProt P17948); assay: Kinase selectivity screen; conditions: read-out: % Inhibition FLT1
MARK1 = MARK1 (Homo sapiens, UniProt Q9P0L2); assay: Kinase selectivity screen; conditions: read-out: % Inhibition MARK1
FGFR3 = FGFR3 (Homo sapiens, UniProt P22607); assay: Kinase selectivity screen; conditions: read-out: % Inhibition FGFR3
PRKCQ = PRKCQ (Homo sapiens, UniProt Q04759); assay: Kinase selectivity screen; conditions: read-out: % Inhibition PRKCQ
PRAK = PRAK (Homo sapiens, UniProt Q8IW41); assay: Kinase selectivity screen; conditions: read-out: % Inhibition PRAK
Sequence of PRAK (Q8IW41 whole entry, species assumed): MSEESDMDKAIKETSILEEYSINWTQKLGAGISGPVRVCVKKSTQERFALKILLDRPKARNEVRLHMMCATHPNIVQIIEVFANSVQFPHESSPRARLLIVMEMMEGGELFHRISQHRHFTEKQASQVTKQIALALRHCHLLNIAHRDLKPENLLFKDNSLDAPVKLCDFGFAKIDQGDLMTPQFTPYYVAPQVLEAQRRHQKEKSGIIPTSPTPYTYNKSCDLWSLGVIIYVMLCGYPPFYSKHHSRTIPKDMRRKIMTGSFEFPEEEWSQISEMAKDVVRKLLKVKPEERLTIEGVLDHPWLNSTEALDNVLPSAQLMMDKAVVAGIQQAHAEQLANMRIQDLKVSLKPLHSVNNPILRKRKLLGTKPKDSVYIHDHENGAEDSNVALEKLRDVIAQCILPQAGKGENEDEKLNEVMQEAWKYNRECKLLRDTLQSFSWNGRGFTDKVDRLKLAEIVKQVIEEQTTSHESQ

Sequence of PIM2 (Q9P1W9 whole entry, species assumed): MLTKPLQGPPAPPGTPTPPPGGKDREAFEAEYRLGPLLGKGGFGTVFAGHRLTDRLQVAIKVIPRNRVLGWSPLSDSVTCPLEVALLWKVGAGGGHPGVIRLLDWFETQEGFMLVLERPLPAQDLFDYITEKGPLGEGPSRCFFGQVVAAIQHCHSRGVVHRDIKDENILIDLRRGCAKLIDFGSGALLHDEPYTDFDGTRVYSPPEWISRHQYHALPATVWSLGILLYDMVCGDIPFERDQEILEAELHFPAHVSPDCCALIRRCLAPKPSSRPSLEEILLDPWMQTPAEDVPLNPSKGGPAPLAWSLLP
Sequence of MINK1 (Q8N4C8 whole entry, species assumed): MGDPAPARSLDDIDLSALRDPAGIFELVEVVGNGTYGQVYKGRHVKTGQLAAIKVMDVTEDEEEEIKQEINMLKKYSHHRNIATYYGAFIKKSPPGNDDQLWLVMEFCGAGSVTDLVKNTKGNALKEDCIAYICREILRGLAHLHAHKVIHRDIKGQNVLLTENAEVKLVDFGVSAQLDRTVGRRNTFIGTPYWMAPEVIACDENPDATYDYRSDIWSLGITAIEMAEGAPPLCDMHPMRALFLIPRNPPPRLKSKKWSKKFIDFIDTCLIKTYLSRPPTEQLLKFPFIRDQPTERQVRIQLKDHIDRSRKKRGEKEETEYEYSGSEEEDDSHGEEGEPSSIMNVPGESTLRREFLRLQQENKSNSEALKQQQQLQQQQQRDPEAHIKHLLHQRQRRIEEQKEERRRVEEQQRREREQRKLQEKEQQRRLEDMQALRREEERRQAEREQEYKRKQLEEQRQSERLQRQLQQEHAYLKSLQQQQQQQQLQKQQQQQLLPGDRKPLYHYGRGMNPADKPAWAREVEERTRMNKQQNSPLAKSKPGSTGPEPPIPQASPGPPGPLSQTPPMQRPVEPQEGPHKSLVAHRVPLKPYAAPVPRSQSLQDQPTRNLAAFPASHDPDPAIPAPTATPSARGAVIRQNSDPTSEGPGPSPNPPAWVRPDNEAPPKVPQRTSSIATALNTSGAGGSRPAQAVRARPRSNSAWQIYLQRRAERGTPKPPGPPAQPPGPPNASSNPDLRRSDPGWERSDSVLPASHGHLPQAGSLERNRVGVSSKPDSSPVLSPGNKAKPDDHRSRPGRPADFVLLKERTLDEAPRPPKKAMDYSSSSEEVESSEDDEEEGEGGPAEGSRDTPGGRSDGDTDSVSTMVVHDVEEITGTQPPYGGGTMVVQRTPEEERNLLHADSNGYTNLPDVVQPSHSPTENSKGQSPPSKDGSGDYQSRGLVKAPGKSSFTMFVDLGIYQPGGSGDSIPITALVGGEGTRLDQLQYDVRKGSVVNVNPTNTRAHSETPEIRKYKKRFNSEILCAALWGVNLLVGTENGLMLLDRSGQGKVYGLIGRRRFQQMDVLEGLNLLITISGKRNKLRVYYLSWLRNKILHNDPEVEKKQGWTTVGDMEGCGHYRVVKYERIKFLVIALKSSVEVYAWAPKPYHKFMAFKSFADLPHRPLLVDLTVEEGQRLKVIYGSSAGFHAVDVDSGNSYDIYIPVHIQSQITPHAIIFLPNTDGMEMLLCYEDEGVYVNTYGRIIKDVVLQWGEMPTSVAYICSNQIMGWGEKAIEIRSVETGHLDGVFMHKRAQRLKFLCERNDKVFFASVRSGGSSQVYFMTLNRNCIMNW
Sequence of STK4 (Q13043 whole entry, species assumed): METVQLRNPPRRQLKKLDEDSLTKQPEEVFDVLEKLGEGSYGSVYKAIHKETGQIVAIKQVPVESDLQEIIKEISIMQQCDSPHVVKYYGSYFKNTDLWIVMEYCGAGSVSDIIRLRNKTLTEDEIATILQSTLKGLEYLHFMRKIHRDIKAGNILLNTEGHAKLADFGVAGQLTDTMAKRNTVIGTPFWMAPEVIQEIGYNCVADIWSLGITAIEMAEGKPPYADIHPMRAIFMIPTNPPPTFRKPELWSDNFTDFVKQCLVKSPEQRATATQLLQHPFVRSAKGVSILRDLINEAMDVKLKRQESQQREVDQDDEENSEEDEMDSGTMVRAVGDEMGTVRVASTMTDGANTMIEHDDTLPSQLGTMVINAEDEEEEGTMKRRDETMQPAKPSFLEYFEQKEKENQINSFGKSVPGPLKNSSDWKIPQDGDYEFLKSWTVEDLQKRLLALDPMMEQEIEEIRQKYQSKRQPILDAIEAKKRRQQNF
Sequence of IKBKB (O14920 whole entry, species assumed): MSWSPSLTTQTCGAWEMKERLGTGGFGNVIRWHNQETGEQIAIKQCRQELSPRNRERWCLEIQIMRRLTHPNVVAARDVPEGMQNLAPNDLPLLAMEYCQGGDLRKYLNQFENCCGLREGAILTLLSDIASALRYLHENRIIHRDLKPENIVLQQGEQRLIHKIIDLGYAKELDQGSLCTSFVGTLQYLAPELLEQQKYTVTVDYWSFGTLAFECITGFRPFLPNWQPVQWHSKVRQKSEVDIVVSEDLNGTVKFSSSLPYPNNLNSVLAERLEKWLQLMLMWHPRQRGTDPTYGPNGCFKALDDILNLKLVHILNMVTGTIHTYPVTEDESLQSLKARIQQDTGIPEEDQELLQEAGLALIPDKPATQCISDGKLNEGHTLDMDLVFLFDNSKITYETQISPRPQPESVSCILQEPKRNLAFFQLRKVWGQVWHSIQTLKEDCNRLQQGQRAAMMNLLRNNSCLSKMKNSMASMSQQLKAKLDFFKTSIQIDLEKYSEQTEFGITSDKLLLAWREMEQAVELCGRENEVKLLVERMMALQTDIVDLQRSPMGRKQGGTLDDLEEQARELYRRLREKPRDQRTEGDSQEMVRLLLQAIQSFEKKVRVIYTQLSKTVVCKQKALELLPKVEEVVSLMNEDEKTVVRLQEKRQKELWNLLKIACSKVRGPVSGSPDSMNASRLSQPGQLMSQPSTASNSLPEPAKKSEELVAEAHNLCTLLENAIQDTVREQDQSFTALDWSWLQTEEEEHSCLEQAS
Sequence of PRKCQ (Q04759 whole entry, species assumed): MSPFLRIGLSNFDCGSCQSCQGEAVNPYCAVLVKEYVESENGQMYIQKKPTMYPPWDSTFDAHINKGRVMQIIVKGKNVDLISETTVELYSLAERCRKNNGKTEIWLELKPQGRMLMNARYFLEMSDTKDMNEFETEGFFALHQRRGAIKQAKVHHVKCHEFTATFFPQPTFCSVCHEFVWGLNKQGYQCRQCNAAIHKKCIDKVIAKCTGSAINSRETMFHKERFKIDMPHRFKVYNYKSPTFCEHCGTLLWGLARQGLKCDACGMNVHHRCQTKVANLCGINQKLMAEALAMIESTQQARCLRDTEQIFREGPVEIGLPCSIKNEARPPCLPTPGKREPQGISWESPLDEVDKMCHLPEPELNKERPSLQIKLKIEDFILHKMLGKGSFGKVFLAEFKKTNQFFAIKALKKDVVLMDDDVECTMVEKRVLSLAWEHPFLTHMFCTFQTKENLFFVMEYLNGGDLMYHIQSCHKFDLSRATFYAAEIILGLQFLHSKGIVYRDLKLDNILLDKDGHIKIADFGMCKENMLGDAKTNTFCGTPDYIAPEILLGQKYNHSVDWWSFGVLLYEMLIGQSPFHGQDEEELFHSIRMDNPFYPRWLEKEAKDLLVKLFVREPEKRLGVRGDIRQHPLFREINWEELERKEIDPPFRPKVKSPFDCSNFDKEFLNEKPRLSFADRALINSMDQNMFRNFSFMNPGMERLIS
Sequence of MAPK14 (Q16539 whole entry, species assumed): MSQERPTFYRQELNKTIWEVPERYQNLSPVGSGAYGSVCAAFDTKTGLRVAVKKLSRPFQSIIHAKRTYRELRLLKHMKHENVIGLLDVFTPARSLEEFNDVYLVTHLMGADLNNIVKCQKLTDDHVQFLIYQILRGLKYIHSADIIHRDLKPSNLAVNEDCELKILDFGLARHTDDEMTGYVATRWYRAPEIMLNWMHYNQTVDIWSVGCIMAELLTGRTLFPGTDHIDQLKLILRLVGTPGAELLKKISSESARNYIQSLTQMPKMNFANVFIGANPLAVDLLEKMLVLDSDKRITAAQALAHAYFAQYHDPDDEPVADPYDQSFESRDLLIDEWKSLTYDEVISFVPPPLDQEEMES
Sequence of SGK1 (O00141 whole entry, species assumed): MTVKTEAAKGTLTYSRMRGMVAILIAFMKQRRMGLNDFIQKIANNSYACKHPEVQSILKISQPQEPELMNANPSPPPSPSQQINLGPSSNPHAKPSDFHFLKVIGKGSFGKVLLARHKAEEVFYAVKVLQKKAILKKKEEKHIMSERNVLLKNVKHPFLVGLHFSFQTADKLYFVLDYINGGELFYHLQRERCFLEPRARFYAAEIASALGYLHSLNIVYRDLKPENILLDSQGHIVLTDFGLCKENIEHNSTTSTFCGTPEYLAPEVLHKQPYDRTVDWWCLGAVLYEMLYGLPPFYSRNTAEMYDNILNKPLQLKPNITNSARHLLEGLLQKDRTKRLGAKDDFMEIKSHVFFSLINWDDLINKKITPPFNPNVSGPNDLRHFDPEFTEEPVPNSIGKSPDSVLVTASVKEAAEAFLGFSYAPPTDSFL

Q: Which results are given for `CC(C)Oc1cc(F)ccc1Nc1ncnc2cc(C(=O)NCCCN(C)C)n(C)c12` [Example 40, N-[3-(dimethylamino)propyl]-4-{[4-fluoro-2-(propan-2-yloxy)phenyl]amino}-5-methyl-5H-pyrrolo[3,2-d]pyrimidine-6-carboxamide]?
A: inhibition at 1 µM (AXL): 0%; pIC50 (Full-length human MNK1): 7.30; inhibition at 1 µM (PIK3C2G): 4%; inhibition at 1 µM (GSK3B): 0%; inhibition at 1 µM (STK11): 0%; inhibition at 1 µM (PIM2): 0%; inhibition at 1 µM (RAF1): 0%; inhibition at 1 µM (DYRK2): 8%; inhibition at 1 µM (EPHA5): 0%; inhibition at 1 µM (MAP2K7): 0%; inhibition at 1 µM (MAPK8): 0%; inhibition at 1 µM (PIK3CB): 1%; inhibition at 1 µM (MINK1): 0%; inhibition at 1 µM (STK4): 0%; inhibition at 1 µM (LYN): 11%; inhibition at 1 µM (MET): 13%; inhibition at 1 µM (ROCK2): 0%; inhibition at 1 µM (AURKC): 28%; inhibition at 1 µM (IKBKB): 0%; inhibition at 1 µM (CDK2/CCNA2): 0%; inhibition at 1 µM (EPHB1): 0%; inhibition at 1 µM (MST1R): 0%; pIC50 (Full-length human MNK2): 7.40; inhibition at 1 µM (SGK1): 0%; inhibition at 1 µM (AKT1): 0%; inhibition at 1 µM (MAPK14): 0%; inhibition at 1 µM (KIT): 2%; inhibition at 1 µM (ABL2): 0%; inhibition at 1 µM (STK10): 0%; inhibition at 1 µM (FLT1): 8%; inhibition at 1 µM (MARK1): 0%; inhibition at 1 µM (FGFR3): 10%; inhibition at 1 µM (PRKCQ): 0%; inhibition at 1 µM (PRAK): 0%
